Test results reported in patent publication US11958859B2, “Use of pyridoxal acetal salts as water-triggered pro-fragrances” (Florida Gulf Coast University Board of Trustees, priority 2018, dated 2024).

How the values were obtained:
[1] = Hydrolysis (acetal cleavage) of pyridoxal acetal salts in D2O/DMSO-d6, release of the alcohol monitored by time-dependent 1H NMR; assay type: physicochemical; conditions: for release of alcohol from the respective pyridoxal acetal: 0.2 M, 30% D2O in DMSO-d6, after 22 hours
Experimental: The hydrolysis of the target alcohol from the pyridoxal acetal salt in the presence of D2O was monitored by ^1H NMR spectroscopy. This was accomplished by comparing the formation of hemiacetal C—H peak to the loss of the acetal C—H peak. For substrate 3a, the integration of the acetal C—H peak at 6.58 ppm was compared to the integration of the pyridoxal hemiacetal C—H peak at 6.41 ppm hourly to determine conversion. A stack plot of the NMR spectra for 50% D2O solution in DMSO-d6 over 20 hours is illustrated in FIG. 2.
To determine the kinetics of the hydrolysis with respect to the concentration of water, acetal 3a was exposed to varying concentrations of D2O The release of ethanol from 3a was measured at concentrations of 25%, 35%, 50%, and 100% D2O in DMSO-d6 and is plotted in FIG. 3. […] The 100% D2O trial provides full cleavage after 10 hours whereas a lowest concentration of D2O (25%) provides the slowest release at only 28% cleaved after 25 hours. The 50% D2O trial provided 74% release after 25 hours and the 35% D2O trial provided 42% release.
The rate of release for ethanol (blue), isopropanol (red), 2-phenylethanol (green), and geraniol (purple) were monitored at a 0.2 M concentration of 30% D2O in DMSO-d6 from the respective pyridoxal acetal. […] In all cases, the acetals hydrolyze to release the target molecule and pyridoxal HCl quantitatively. Since other fragrance delivery systems can lose material in side reactions (H. Q. N. Gunaratne et al., Chem. Commun., 2015, 51, 4455), the high fidelity in the release for these alcohols is significant.
The acetal cleavage was measured by comparing the integration of Ha to Hb whereas Hb/(Ha+Hb) provides the percent completion for the acetal cleavage for 3a and 3b. The stack plots in FIGS. 7-11 provide a visual counterpart to the graphs. 3c had some overlap between Ha and Hb so the fully separated methyl groups of the isopropyl were integrated instead.
3a (0.1636 mmol) was dissolved in 0.4 mL of DMSO-d6 (except for 100% D2O) and varying amounts of D2O were added, as shown in the table below (see corresponding stack plots in FIGS. 7-11).

Row | melting point [°C] | release of alcohol from the respective pyridoxal acetal [1] [%] | acetal cleaved (release of ethanol) ([1]; 25% D2O in DMSO-d6, after 25 hours) [%] | release of ethanol ([1]; 35% D2O in DMSO-d6 (time not restated; 25 hours implied)) [%] | release of ethanol ([1]; 50% D2O in DMSO-d6, after 25 hours) [%] | cleavage of acetal (release of ethanol) ([1]; 100% D2O, after 10 hours, 1H NMR) | Structure (SMILES) | dependence of release rate on water concentration ([1]; 25%, 35%, 50%, 100% D2O in DMSO-d6, FIG. 3)
1 | 168 to 172 | – | – | – | – | – | Cc1ncc2c(c1O)C(OCCc1ccccc1)OC2.Cl (stereo not shown) | –
2 | 97 to 103 | 35 | 28 | 42 | 74 | full cleavage | CCOC1OCc2cnc(C)c(O)c21.Cl (stereo not shown) [3a, 1-ethoxy-7-hydroxy-6-methyl-1,3-dihydrofuro[3,4-c]pyridin-5-ium chloride] | rate increases with higher concentrations of D2O
3 | 116 to 121 | 37 | – | – | – | – | Cc1ncc2c(c1O)C(OC(C)C)OC2.Cl (stereo not shown) [3c, 7-hydroxy-1-isopropoxy-6-methyl-1,3-dihydrofuro[3,4-c]pyridin-5-ium chloride] | –
